Experiment [1] has as its system Leishmania. As to conditions: read-out: IC50 (leishmanicidal activity), cited from earlier work.
Experiment [2] has as its system human red blood cells. Put plainly: Haemolytic assay towards human red blood cells. Conditions: HC50 red blood cells / IC50 L. donovani promastigotes. The format is cell-based. Here is the method: Briefly, promastigotes in the logarithmic growth phase were cultured in 96-well cell culture plates at 1 × 10^6 parasites per well in […] of Schneider's medium with increasing concentrations of 3.12, 6.25, 12.5, 25, 50, 100, 200, and 400 µg/mL of Morita-Baylis-Hillman adduct. The plates were incubated for 72 h in a biological oxygen demand (B.O.D.) incubator at 26 °C. Cytotoxicity to promastigotes was evaluated by the 3-(4,5-dimethyl-2-thiazole)-2,5-diphenyltetrazolium bromide (MTT) colorimetric assay as described by Valadares et al..The absorbance was measured using an ELISA plate reader (ELx800, BIOTEK) at 540 nm. Amphotericin® was used as a positive control. The viability of promastigotes incubated in the presence of different concentrations of adducts was determined by comparing to a culture control (L. donovani cultivated in Schneider only). The concentration that caused a 50% reduction in cell viability (IC50) was calculated by Probit analysis (SPSS 13.0 for Windows). Each experiment was performed in duplicate and repeated at least three times. Haemolytic assays (HC50 > […]) towards human red blood cells were performed as described in the literature.

Experiment [3] relates to promastigotes of Leishmania donovani. The experiment can be described thus: Effect on promastigotes of Leishmania donovani (MTT viability assay, 72 h). It is filed as cell-based. As to conditions: L. donovani promastigotes; for IC50: read-out: IC50 (half maximal inhibitory concentration). Here is the method:
Leishmania (Leishmania) donovani (MHOM/ET/1967/HU3) was provided by Oswaldo Cruz Institute Leishmania Collection-Fiocruz-RJ-Brazil. Promastigotes were maintained in vitro at 26 °C in Schneider's medium, pH 7 (20% heat-inactivated fetal bovine serum (FBS), 100 U/mL penicillin, […] streptomycin, and 2% of male urine), as previously described. […] The plates were incubated for 72 h in a biological oxygen demand (B.O.D.) incubator at 26 °C. […] [30].The absorbance was measured using an ELISA plate reader (ELx800, BIOTEK) at 540 nm. Amphotericin® was used as a positive control. The viability of promastigotes incubated in the presence of different concentrations of adducts was determined by comparing to a culture control (L. donovani cultivated in Schneider only). The concentration that caused a 50% reduction in cell viability (IC50) was calculated by Probit analysis (SPSS 13.0 for Windows). Each experiment was performed in duplicate and repeated at least three times.
A general note: Tetrazolium dyes change colour on reduction, which living cells bring about.

The subject of experiment [4] is acetic acid-induced abdominal writhes. Also noted: method as in earlier work. As to conditions: mice, ref 16 (Capim et al., Bioorg. Med. Chem. 2013); cited from earlier work.
Experiment [5] shares this test system. Put plainly: Acetic acid-induced abdominal writhes in mice. As to conditions: unpublished results. The format is in vivo.
The subject of experiment [6] is L. donovani. Also noted: method as in PMID 27520941. Conditions: read-out: anti-leishmania activity; cited from earlier work.
The mark [7] stands for this setting: Figure 1, hybrid 5 and precursor eugenol.
The mark [8] stands for this setting: Figure 1, hybrid 1 and precursors.

Where “and” joins values, the source holds several entries; their conditions need not be identical. Equal entries are not always repeated. Where two headings read alike, the source gives them in different places. Bounds are passed on as bounds.

In the case of `CC[C@@H]1CCC[C@H](CO)O1` [compound 5], the IC50 in experiment [1] (setting [7]) was 4.7 µM.
With `C=C(C(=O)OCC1CCCC(CC)O1)C(O)c1ccc([N+](=O)[O-])cc1` (stereo not shown) [9c, 2-[Hydroxy-(4-nitro-phenyl)-methyl]-acrylic acid 6-ethyl-tetrahydro-pyran-2-ylmethyl ester], the “SIrb (selectivity index on red blood cell) = HC50/IC50” value in experiment [2] is recorded as over 56.91. In experiment [3] (Leishmania donovani), the IC50 was 7.03 µg/mL and 20.1 µM.
Turning to `OC[C@H]1C[C@@H](Cl)C[C@@H](c2cccc3ccccc23)O1` (relative stereo) [compound 6, [(±)-(2,4,6-cis)-4-chloro-6-(naphthalen-1-yl)-tetrahydro-2H-pyran-2-yl]methanol], in experiment [3] (Leishmania donovani), the IC50 is 47.5 µg/mL and 172 µM. Besides, in experiment [4], the “Calculated ED50” value is 27.97 μmol·kg^–1.
`C=C(C(=O)OCC1CC(Cl)CC(c2cccc3ccccc23)O1)C(O)c1ccncc1` (stereo not shown) [8f, 2-(Hydroxy-pyridin-4-yl-methyl)-acrylic acid 4-chloro-6-naphthalen-1-yl-tetrahydro-pyran-2-yl methyl ester]: the IC50 in experiment [3] (Leishmania donovani) was 8.96 µg/mL and 20.5 µM.
Take “2-(Hydroxy-naphthalen-2-yl-methyl)-acrylic acid 6-ethyl-tetrahydro-pyran-2-ylmethyl ester [9g]”: in experiment [3], the “IC50 (half maximal inhibitory concentration)” value is 9.73 ± 4.8 µg/mL and the IC50 worked out at 27.5 ± 13.6 µM.
Take `C=C(C(=O)OCC1CC(Cl)CC(c2cccc3ccccc23)O1)C(O)c1ccccc1[N+](=O)[O-]` (stereo not shown) [8a, 2-[Hydroxy-(2-nitro-phenyl)-methyl]-acrylic acid 4-chloro-6-naphthalen-1-yl-tetrahydro-pyran-2-ylmethyl ester]: the “SIrb (selectivity index on red blood cell) = HC50/IC50” value in experiment [2] was over 56.40. Also, the IC50 in experiment [3] (Leishmania donovani) is 7.09 µg/mL and 14.7 µM.
Turning to `C=C(C(=O)OCC1CCCC(CC)O1)C(O)c1ccccc1[N+](=O)[O-]` (stereo not shown) [9a, 2-[Hydroxy-(2-nitro-phenyl)-methyl]-acrylic acid 6-ethyl-tetrahydro-pyran-2-ylmethyl ester], in experiment [2], the “SIrb (selectivity index on red blood cell) = HC50/IC50” value is given as over 70.94. For the same molecule, in experiment [3] (Leishmania donovani), the IC50 is 5.64 µg/mL and 16.1 µM.
Consider `C=C(C(=O)OCC1CCCC(CC)O1)C(O)c1cccc([N+](=O)[O-])c1` (stereo not shown) [9b, 2-[Hydroxy-(3-nitro-phenyl)-methyl]-acrylic acid 6-ethyl-tetrahydro-pyran-2-ylmethyl ester], for which, in experiment [3] (Leishmania donovani), the IC50 was 13.8 µg/mL and 39.4 µM.
Turning to `COC(=O)c1ccccc1O` [compound 2, methyl salicylate], the IC50 in experiment [1] (setting [8]) was 1720 µM.
Turning to `C=C(C(=O)OCC1CCCC(CC)O1)C(O)c1ccncc1` (stereo not shown) [9f, 2-(Hydroxy-pyridin-4-yl-methyl)-acrylic acid 6-ethyl-tetrahydro-pyran-2-ylmethyl ester], the IC50 in experiment [3] (Leishmania donovani) is 57.8 µg/mL and 189 µM.
Take `C=C(C(=O)OCC1CC(Cl)CC(c2cccc3ccccc23)O1)C(O)c1cccc([N+](=O)[O-])c1` (stereo not shown) [8b, 2-[Hydroxy-(3-nitro-phenyl)-methyl]-acrylic acid 4-chloro-6-naphthalen-1-yl-tetrahydro-pyran-2-yl-methyl ester]: the IC50 in experiment [3] (Leishmania donovani) was 8.76 µg/mL and 18.2 µM.
As for `C=C(C(=O)OCC1CCCC(CC)O1)C(O)c1ccc(Br)cc1` (stereo not shown) [9h, 2-[(4-Bromo-phenyl)-hydroxy-methyl]-acrylic acid 6-ethyl-tetrahydro-pyran-2-ylmethyl ester], the “SIrb (selectivity index on red blood cell) = HC50/IC50” value in experiment [2] was over 180.19. In addition, the IC50 in experiment [3] (Leishmania donovani) was 2.22 µg/mL and 5.81 µM.
Regarding “2-(Hydroxy-naphthalen-2-yl-methyl)-acrylic acid 4-chloro-6-naphthalen-1-yl-tetrahydro-pyran -2-ylmethyl ester [8g]”, in experiment [3], the “IC50 (half maximal inhibitory concentration)” value is 24.51 ± 7.5 µg/mL and the IC50 came out at 50.4 ± 15.4 µM.
For the molecule `C=CCc1ccc(O)c(OC)c1` [compound 4, eugenol], in experiment [1] (setting [7]), the IC50 was 77.5 µM.
In the case of `C=C(C(=O)OCC1CCCC(CC)O1)C(O)c1cccnc1` (stereo not shown) [9e, 2-(Hydroxy-pyridin-3-yl-methyl)-acrylic acid 6-ethyl-tetrahydro-pyran-2-ylmethyl ester], the IC50 in experiment [3] (Leishmania donovani) is 17.7 µg/mL and 57.9 µM.
On to `C=C(C(=O)OCC1CC(Cl)CC(c2cccc3ccccc23)O1)C(O)c1ccccn1` (stereo not shown) [8d, 2-(Hydroxy-pyridin-2-yl-methyl)-acrylic acid 4-chloro-6-naphthalen-1-yl-tetrahydro-pyran-2-yl methyl ester], for which the IC50 in experiment [3] (Leishmania donovani) is 61.9 µg/mL and 142 µM.
Regarding `C=C(C(=O)OCC1CCCC(CC)O1)C(O)c1ccccn1` (stereo not shown) [9d, 2-(Hydroxy-pyridin-2-yl-methyl)-acrylic acid 6-ethyl-tetrahydro-pyran-2-ylmethyl ester], the IC50 in experiment [3] (Leishmania donovani) was 72.3 µg/mL and 240 µM.
As for `C=C(C(=O)OCC1CC(Cl)CC(c2cccc3ccccc23)O1)C(O)c1ccc([N+](=O)[O-])cc1` (stereo not shown) [8c, 2-[Hydroxy-(4-nitro-phenyl)-methyl]-acrylic acid 4-chloro-6-naphthalen-1-yl-tetrahydro-pyran-2-ylmethyl ester], the IC50 in experiment [3] (Leishmania donovani) is 9.05 µg/mL and 18.8 µM.
On to `CC[C@@H]1CCC[C@H](CO)O1` [compound 7], for which the IC50 in experiment [3] (Leishmania donovani) was > 400 µg/mL and > 2.78 mM. The “Calculated ED50” value in experiment [5] is 41.67 μmol·kg^–1.
For `C[C@@H]1[C@H](O)[C@@H](C)/C=C/C=C/C=C/C=C/C=C/C=C/C=C/[C@H](O[C@@H]2O[C@H](C)[C@@H](O)[C@H](N)[C@@H]2O)C[C@@H]2O[C@](O)(C[C@@H](O)C[C@@H](O)[C@H](O)CC[C@@H](O)C[C@@H](O)CC(=O)O[C@H]1C)C[C@H](O)[C@H]2C(=O)O` [Amphotericin B, reference compound], the “SIrb (selectivity index on red blood cell) = HC50/IC50” value in experiment [2] is on record as 33.05. Moreover, the IC50 is 0.35 µg/mL and 380 nM in experiment [3] (Leishmania donovani); 0.62 µM in experiment [6].
With `C=C(C(=O)Oc1ccccc1C(=O)OC)C(O)c1ccccc1[N+](=O)[O-]` (stereo not shown) [compound 1], the IC50 in experiment [1] (setting [8]) was 28.3 µM.
Turning to `C=C(C(=O)OCC1CC(Cl)CC(c2cccc3ccccc23)O1)C(O)c1cccnc1` (stereo not shown) [8e, 2-(Hydroxy-pyridin-3-yl-methyl)-acrylic acid 4-chloro-6-naphthalen-1-yl-tetrahydro-pyran-2-yl methyl ester], the IC50 in experiment [3] (Leishmania donovani) was 8.76 µg/mL and 20 µM.
On to `C=C(C(=O)OC)C(O)c1ccccc1[N+](=O)[O-]` (stereo not shown) [compound 3], for which the IC50 in experiment [1] (setting [8]) is 347 µM.
As for `C=C(C(=O)OCC1CC(Cl)CC(c2cccc3ccccc23)O1)C(O)c1ccc(Br)cc1` (stereo not shown) [8h, 2-[(4-Bromo-phenyl)-hydroxy-methyl]-acrylic acid 4-chloro-6-naphthalen-1-yl-tetrahydro-pyran-2-ylmethyl ester], the IC50 in experiment [3] (Leishmania donovani) is 17.2 µg/mL and 33.4 µM.

Source of the values: article PMC6155752, “Synthesis of 16 New Hybrids from Tetrahydropyrans Derivatives and Morita-Baylis-Hillman Adducts: In Vitro Screening against Leishmania donovani” (Molecules : A Journal of Synthetic Chemistry and Natural …, 2017).
